Test results reported in patent US20020137929A1, “1 - (3-heterocyclylphenyl) isothiourea, -isourea, -guanidine and -amidine herbicidal agents” (Intellectual Property Department, BASF Aktiengesellschaft, priority 1998, published 2002).

Assays:
[1] = tested on: ORYSAT (Rice, Tebonnet); test: Postemergence herbicidal evaluation; format: in vivo, Oryza sativa, (L.) Tebonnet
In short: (§1)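 Two-week-old seedlings sprayed with compound in 50/50 acetone/water plus 0.5% TWEEN 20, at about 0.0156 to 0.500 kg/ha, nozzle at 40 psi. Kept in greenhouse; rated visually 4-5 weeks after treatment on a 0-9 scale versus control, repeat tests averaged.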

[2] = tested on: GALAP (Galium); test: Postemergence herbicidal evaluation; format: in vivo, Galium aparine
In short: as §1

[3] = tested on: SETVI (Foxtail, Green); test: Preemergence herbicidal evaluation; format: in vivo, Setaria viridis; settings: rated 4-5 weeks after treatment
In short: (§2)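 Preemergence soil application of compound, sprayed in aqueous acetone at rates equivalent to about 0.0156 to 0.500 kg per hectare onto freshly sown cups. Plant response was judged by eye on a 0-9 scale four to five weeks later.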

[4] = tested on: ORYSAT (Rice, Tebonnet); test: Preemergence herbicidal evaluation; format: in vivo, Oryza sativa, (L.) Tebonnet; settings: rated 4-5 weeks after treatment
In short: as §2

[5] = tested on: SAGPY (Arrowhead (Pygmaea)); test: Postemergence weed control under flooded paddy conditions; format: in vivo, Sagittaria pygmaea; settings: postemergence weeds, 3-4 weeks after treatment
In short: (§3)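 Containers holding 3–5 cm weeds and rice at 1.5–2.5 leaves are flooded to 1.5–3 cm above soil. Compound in 50/50 v/v aqueous/acetone is then added directly to the water, about 0.0313–0.500 kg/ha. Plants are kept in the greenhouse and rated 0–9 visually at 3–4 weeks.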

[6] = tested on: CASOB (Sicklepod); test: Postemergence herbicidal evaluation; format: in vivo, Cassia obtusifolia
In short: as §1

[7] = tested on: CYPIR (Rice Flatsedge); test: Postemergence weed control under flooded paddy conditions; format: in vivo, Cyperus iria; settings: postemergence weeds, 3-4 weeks after treatment
In short: as §3

[8] = tested on: CYPSE (Flatsedge); test: Preemergence weed control under flooded paddy conditions; format: in vivo, Cyperus serotinus; settings: rated 3-4 weeks after treatment
In short: (§4)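 Values are visual 0-9 scores against a control for a preemergence application into paddy flood water at about 0.0313 to 0.500 kg/ha. Greenhouse duration was three to four weeks.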

[9] = tested on: AMBEL (Ragweed, Common); test: Preemergence herbicidal evaluation; format: in vivo, Ambrosia artemisifolia; settings: rated 4-5 weeks after treatment
In short: as §2

[10] = tested on: GLXMAW (Soybean, Williams); test: Preemergence herbicidal evaluation; format: in vivo, Glycine max, (L.) Merr. cv Williams; settings: rated 4-5 weeks after treatment
In short: as §2

[11] = tested on: CYPSE (Flatsedge); test: Postemergence weed control under flooded paddy conditions; format: in vivo, Cyperus serotinus; settings: postemergence weeds, 3-4 weeks after treatment
In short: as §3

[12] = tested on: MOOVA (Monochoria); test: Preemergence weed control under flooded paddy conditions; format: in vivo, Monochoria vaginalis; settings: rated 3-4 weeks after treatment
In short: as §4

[13] = tested on: ZEAMX (Corn, Field); test: Postemergence herbicidal evaluation; format: in vivo, Zea mays
In short: as §1

[14] = tested on: CHEAL (Lambsquarters, Common); test: Postemergence herbicidal evaluation; format: in vivo, Chenopodium album
In short: as §1

CCOC(=O)CN1C(=O)C(CC(=O)O)O/C1=N/c1cc(-n2c(=O)cc(C(F)(F)F)n(C)c2=O)c(F)cc1Cl (stereo not shown) [Compound 41, 2-{{2-Chloro-5-[3,6-dihydro-3-methyl-2,6-dioxo-4-(trifluoromethyl)-1(2H)-pyrimidinyl]-4-fluoro-phenyl}imino}-4-oxo-3,5-oxazolidinediacetic acid, 3-ethyl ester]
Postemergence herbicidal rating ORYSAT ([1]; Rate 0.0158 kg/ha): 2.5 | Postemergence herbicidal rating ORYSAT ([1]; Rate 0.0315 kg/ha): 3.5 | Postemergence herbicidal rating ORYSAT ([1]; Rate 0.0630 kg/ha): 3.5 | Postemergence herbicidal rating GALAP ([2]; Rate 0.0158 kg/ha): 1.0 | Postemergence herbicidal rating GALAP ([2]; Rate 0.0315 kg/ha): 2.0 | Postemergence herbicidal rating GALAP ([2]; Rate 0.0630 kg/ha): 5.0 | Preemergence herbicidal rating SETVI ([3]; rate 0.0156 kg/ha): 0.0 | Preemergence herbicidal rating SETVI ([3]; rate 0.0313 kg/ha): 0.0 | Preemergence herbicidal rating SETVI ([3]; rate 0.0625 kg/ha): 1.0 | Preemergence herbicidal rating SETVI ([3]; rate 0.1250 kg/ha): 1.0 | Preemergence herbicidal rating SETVI ([3]; rate 0.2500 kg/ha): 9.0 | Preemergence herbicidal rating ORYSAT ([4]; rate 0.0156 kg/ha): 0.0 | Preemergence herbicidal rating ORYSAT ([4]; rate 0.0313 kg/ha): 0.0 | Preemergence herbicidal rating ORYSAT ([4]; rate 0.0625 kg/ha): 0.0 | Preemergence herbicidal rating ORYSAT ([4]; rate 0.1250 kg/ha): 0.0 | Preemergence herbicidal rating ORYSAT ([4]; rate 0.2500 kg/ha): 0.0 | Herbicidal rating SAGPY ([5]; rate 0.0313 kg/ha): 0.0 | Herbicidal rating SAGPY ([5]; rate 0.0625 kg/ha): 0.0 | Herbicidal rating SAGPY ([5]; rate 0.1250 kg/ha): 0.0 | Herbicidal rating SAGPY ([5]; rate 0.2500 kg/ha): 6.0 | Postemergence herbicidal rating CASOB ([6]; Rate 0.0158 kg/ha): 1.0 | Postemergence herbicidal rating CASOB ([6]; Rate 0.0315 kg/ha): 1.0 | Postemergence herbicidal rating CASOB ([6]; Rate 0.0630 kg/ha): 5.0 | Herbicidal rating CYPIR ([7]; rate 0.0313 kg/ha): 0.0 | Herbicidal rating CYPIR ([7]; rate 0.0625 kg/ha): 0.0 | Herbicidal rating CYPIR ([7]; rate 0.1250 kg/ha): 0.0 | Herbicidal rating CYPIR ([7]; rate 0.2500 kg/ha): 4.0 | Herbicidal rating CYPSE ([8]; 0.0313 kg/ha): 0.0 | Herbicidal rating CYPSE ([8]; 0.0625 kg/ha): 0.0 | Herbicidal rating CYPSE ([8]; 0.1250 kg/ha): 2.0 | Herbicidal rating CYPSE ([8]; 0.2500 kg/ha): 7.0 | Preemergence herbicidal rating AMBEL ([9]; rate 0.0156 kg/ha): 0.0 | Preemergence herbicidal rating AMBEL ([9]; rate 0.0313 kg/ha): 1.0 | Preemergence herbicidal rating AMBEL ([9]; rate 0.0625 kg/ha): 2.0 | Preemergence herbicidal rating AMBEL ([9]; rate 0.1250 kg/ha): 9.0 | Preemergence herbicidal rating AMBEL ([9]; rate 0.2500 kg/ha): 8.0 | Preemergence herbicidal rating GLXMAW ([10]; rate 0.0156 kg/ha): 0.0 | Preemergence herbicidal rating GLXMAW ([10]; rate 0.0313 kg/ha): 1.0 | Preemergence herbicidal rating GLXMAW ([10]; rate 0.0625 kg/ha): 3.0 | Preemergence herbicidal rating GLXMAW ([10]; rate 0.1250 kg/ha): 2.0 | Preemergence herbicidal rating GLXMAW ([10]; rate 0.2500 kg/ha): 6.0 | Herbicidal rating CYPSE ([11]; rate 0.0313 kg/ha): 0.0 | Herbicidal rating CYPSE ([11]; rate 0.0625 kg/ha): 0.0 | Herbicidal rating CYPSE ([11]; rate 0.1250 kg/ha): 2.0 | Herbicidal rating CYPSE ([11]; rate 0.2500 kg/ha): 7.0 | Herbicidal rating MOOVA ([12]; 0.0313 kg/ha): 6.0 | Herbicidal rating MOOVA ([12]; 0.0625 kg/ha): 9.0 | Herbicidal rating MOOVA ([12]; 0.1250 kg/ha): 9.0 | Herbicidal rating MOOVA ([12]; 0.2500 kg/ha): 9.0 | Postemergence herbicidal rating ZEAMX ([13]; Rate 0.0158 kg/ha): 7.0 | Postemergence herbicidal rating ZEAMX ([13]; Rate 0.0315 kg/ha): 8.0 | Postemergence herbicidal rating ZEAMX ([13]; Rate 0.0630 kg/ha): 7.5 | Postemergence herbicidal rating CHEAL ([14]; Rate 0.0158 kg/ha): 3.0 | Postemergence herbicidal rating CHEAL ([14]; Rate 0.0315 kg/ha): 7.0 | Postemergence herbicidal rating CHEAL ([14]; Rate 0.0630 kg/ha): 9.0

CCOC(=O)COc1ccccc1CC1S/C(=N/c2cc(-n3c(=O)cc(C(F)(F)F)n(C)c3=O)c(F)cc2Cl)N(CC(=O)OCC)C1=O (stereo not shown) [Compound 42, 2-{{2-Chloro-5-[3,6-dihydro-3-methyl-2,6-dioxo-4-(trifluoromethyl)-1(2H)-pyrimidinyl]-4-fluoro-phenyl}imino}-5-(o-hydroxybenzyl)-4-oxo-3-thiazolidineacetic acid, ethyl ester, ester with ethyl glycolate]
Postemergence herbicidal rating ORYSAT ([1]; Rate 0.0158 kg/ha): 2.5 | Postemergence herbicidal rating ORYSAT ([1]; Rate 0.0315 kg/ha): 2.5 | Postemergence herbicidal rating ORYSAT ([1]; Rate 0.0630 kg/ha): 3.0 | Postemergence herbicidal rating GALAP ([2]; Rate 0.0158 kg/ha): 1.0 | Postemergence herbicidal rating GALAP ([2]; Rate 0.0315 kg/ha): 3.0 | Postemergence herbicidal rating GALAP ([2]; Rate 0.0630 kg/ha): 3.0 | Preemergence herbicidal rating SETVI ([3]; rate 0.0313 kg/ha): 0.0 | Preemergence herbicidal rating SETVI ([3]; rate 0.0625 kg/ha): 1.0 | Preemergence herbicidal rating SETVI ([3]; rate 0.1250 kg/ha): 0.0 | Preemergence herbicidal rating SETVI ([3]; rate 0.2500 kg/ha): 0.0 | Preemergence herbicidal rating ORYSAT ([4]; rate 0.0313 kg/ha): 0.0 | Preemergence herbicidal rating ORYSAT ([4]; rate 0.0625 kg/ha): 0.0 | Preemergence herbicidal rating ORYSAT ([4]; rate 0.1250 kg/ha): 0.0 | Preemergence herbicidal rating ORYSAT ([4]; rate 0.2500 kg/ha): 0.0 | Herbicidal rating SAGPY ([5]; rate 0.0313 kg/ha): 0.0 | Herbicidal rating SAGPY ([5]; rate 0.0625 kg/ha): 0.0 | Herbicidal rating SAGPY ([5]; rate 0.1250 kg/ha): 0.0 | Herbicidal rating SAGPY ([5]; rate 0.2500 kg/ha): 3.0 | Postemergence herbicidal rating CASOB ([6]; Rate 0.0158 kg/ha): 4.0 | Postemergence herbicidal rating CASOB ([6]; Rate 0.0315 kg/ha): 3.0 | Postemergence herbicidal rating CASOB ([6]; Rate 0.0630 kg/ha): 7.0 | Herbicidal rating CYPIR ([7]; rate 0.0313 kg/ha): 0.0 | Herbicidal rating CYPIR ([7]; rate 0.0625 kg/ha): 0.0 | Herbicidal rating CYPIR ([7]; rate 0.1250 kg/ha): 0.0 | Herbicidal rating CYPIR ([7]; rate 0.2500 kg/ha): 0.0 | Herbicidal rating CYPSE ([8]; 0.0313 kg/ha): 0.0 | Herbicidal rating CYPSE ([8]; 0.0625 kg/ha): 0.0 | Herbicidal rating CYPSE ([8]; 0.1250 kg/ha): 0.0 | Herbicidal rating CYPSE ([8]; 0.2500 kg/ha): 0.0 | Preemergence herbicidal rating AMBEL ([9]; rate 0.0313 kg/ha): 0.0 | Preemergence herbicidal rating AMBEL ([9]; rate 0.0625 kg/ha): 0.0 | Preemergence herbicidal rating AMBEL ([9]; rate 0.1250 kg/ha): 0.0 | Preemergence herbicidal rating AMBEL ([9]; rate 0.2500 kg/ha): 6.0 | Preemergence herbicidal rating GLXMAW ([10]; rate 0.0313 kg/ha): 0.0 | Preemergence herbicidal rating GLXMAW ([10]; rate 0.0625 kg/ha): 0.0 | Preemergence herbicidal rating GLXMAW ([10]; rate 0.1250 kg/ha): 1.0 | Preemergence herbicidal rating GLXMAW ([10]; rate 0.2500 kg/ha): 1.0 | Herbicidal rating CYPSE ([11]; rate 0.0313 kg/ha): 0.0 | Herbicidal rating CYPSE ([11]; rate 0.0625 kg/ha): 0.0 | Herbicidal rating CYPSE ([11]; rate 0.1250 kg/ha): 0.0 | Herbicidal rating CYPSE ([11]; rate 0.2500 kg/ha): 0.0 | Herbicidal rating MOOVA ([12]; 0.0313 kg/ha): 7.0 | Herbicidal rating MOOVA ([12]; 0.0625 kg/ha): 9.0 | Herbicidal rating MOOVA ([12]; 0.1250 kg/ha): 9.0 | Herbicidal rating MOOVA ([12]; 0.2500 kg/ha): 9.0 | Postemergence herbicidal rating ZEAMX ([13]; Rate 0.0158 kg/ha): 4.5 | Postemergence herbicidal rating ZEAMX ([13]; Rate 0.0315 kg/ha): 4.5 | Postemergence herbicidal rating ZEAMX ([13]; Rate 0.0630 kg/ha): 4.5 | Postemergence herbicidal rating CHEAL ([14]; Rate 0.0158 kg/ha): 3.0 | Postemergence herbicidal rating CHEAL ([14]; Rate 0.0315 kg/ha): 9.0 | Postemergence herbicidal rating CHEAL ([14]; Rate 0.0630 kg/ha): 6.0
